Assay results as given in patent US20120053155A1, “SYSTEM AND METHOD FOR REVERTING ANTIBIOTIC TOLERANCE OF BACTERIAL PERSISTER CELLS” (Syracuse University, priority 2010, published 2012).

How the values were obtained:
[1] = test system: Vibrio harveyi BB886 quorum sensing based on homoserine lactones; test: Quorum sensing assay (bioluminescence of reporter strain); assay type: cell-based; details: 10 μg/mL; V. harveyi BB886; bioluminescence at 5 h after inoculation
Protocol: To understand the effects of BFs on quorum sensing, the reporter strain Vibrio harveyi BB886 was used to monitor the quorum sensing based on homoserine lactones. Briefly, an overnight culture of this strain was diluted by 1:5000 in autoinducer bioassay medium with BFs supplemented at different concentrations. The bioluminescence was measured at 5 h after inoculation.

[2] = test system: P. aeruginosa PAO1 persister cells; test: Antibiotic (Cip) susceptibility of isolated persister cells; assay type: cell-based, Pseudomonas aeruginosa; details: for reverting antibiotic tolerance of persisters: different concentrations, 0.85% NaCl buffer, Cip
Protocol: (§1) Pseudomonas aeruginosa PAO1 was routinely grown in Luria-Bertani (LB) medium. To isolate persister cells, an overnight culture was incubated for 18 h at 37° C. with shaking at 200 rpm, washed twice with 0.85% NaCl buffer, resuspended in the same buffer and then treated with 200 μg/mL Cip for 3.5 h to lyse the regular cells. The remaining persister cells were then harvested by centrifugation at 13,200 rpm for 3 min at room temperature and then treated with or without furanones as described below.
(§2) To obtain persisters, 3 mL of overnight culture of P. aeruginosa PAO1 was incubated for 3.5 h with 200 μg/mL Cip to kill all regular cells. The remaining persisters were washed twice with and resuspended in 0.85% NaCl buffer with 1:50 dilution. Samples were taken immediately to count the CFUs of persisters. Then, each 5 mL of 0.85% NaCl buffer containing persister cells was treated for 3.5 h with 0, 0.1, 0.5, 1 and 2 μg/mL of BF8. The amount of ethanol was adjusted to be the same for all samples. CFUs of treated persister cells were counted to understand if BF8 has any effects on the viability of persister cells.
The persister cells treated with BF8 as described above were then treated again with 200 μg/mL Cip to understand if any persister cells restored susceptibility to Cip. The CFUs were counted as described above.

P. aeruginosa PAO1 = test: Effect on persister formation in subcultures (CFU after Cip treatment); assay type: cell-based, Pseudomonas aeruginosa
Protocol: A P. aerugionsa PAO1 overnight culture was sub-cultured into 6 tubes with 5 mL fresh LB medium in each with the optical density at 600 nm (OD600) adjusted to 0.05. Each tube contained different concentrations of BF8 (0, 5, 10, 30, 50 and 100 μg/mL) diluted from a 60 mg/mL stock solution. The amount of ethanol was adjusted to be the same for all samples to eliminate solvent effects. After 5 h of incubation, 2 mL sample from each tube was washed and plated on LB agar plates for counting colony forming units (“CFU”); while 3 mL of sample was added with 200 μg/mL Cip and incubated for 3.5 h to count the numbers of cells that remained as persisters.
To compare with the effects of sugars known to promote antibiotic uptake by persisters, the above experiment was repeated using 10 mM glucose and mannitol instead of BF8.

[3] = test system: P. aeruginosa PAO1 persister cells; test: Viability of isolated persister cells (CFU); assay type: cell-based, Pseudomonas aeruginosa; details: up to 2 μg/mL; 0.85% NaCl buffer
Protocol: as §1, §2

[4] = test system: P. aeruginosa PAO1 persister cells; test: DNA microarray analysis of gene expression in persister cells; assay type: cell-based, Pseudomonas aeruginosa; details: 1 μg/mL, 1 h
Protocol: Persister cells were harvested from a 100 mL 18-h culture of P. aeruginosa PAO1. The isolated persister cells were resuspended in 0.85% NaCl buffer supplemented with 1 μg/mL (3.7 μM) BF8 or with the same amount of ethanol (4.17 μL to eliminate the solvent effect as the control). After incubation at 37° C. for 1 h, cells were collected by centrifugation at 10,000 rpm for 5 minutes at 4° C., transferred to 2 mL pre-cooled microcentrifuge tubes and frozen in an ethanol-dry ice bath. The cell pellets were stored at −80° C. until RNA isolation.
The RNeasy Mini Kit (Qiagen) was used to isolate total RNA. First, the cells were lysed by beating at 4,800 oscillations/min using a mini-bead beater (Biospec Products Inc., Bartlesville, Okla.) with 0.5-mm glass beads, 900 uL RLT buffer and 1% 2-Mercaptoethanol. The total RNA was extracted following the manufacture's protocol with additional wash with RW1 buffer, RPE buffer and DNase treatment (RNase-Free DNase Set, Qiagen). The RNA samples were sent to the DNA microarray Facilities at SUNY Upstate Medical University for microarray hybridization.

SMILES: CC1=C(Br)/C(=C/Br)OC1=O [BF8]
- response of the reporter strain to homoserine lactones [1]: completely eliminated
- persister cells rendered sensitive to Cip ([2]; 2 μg/mL, then 200 μg/mL Cip): around 90%
- susceptibility of persisters to Cip ([2]; 0.5, 1 and 2 μg/mL, then 200 μg/mL Cip): more susceptible to Cip
- cells persistent (retaining antibiotic tolerance) after treatment (P. aeruginosa PAO1; 100 μg/mL BF8, 5 h incubation, 200 μg/mL Cip): 1.6%
- reduction of the number of persister cells formed compared to the furanone-free control (P. aeruginosa PAO1; 100 μg/mL, 5 h incubation in LB medium, 200 μg/mL Cip 3.5 h): up to 100 times
- killing effects on persister cells (viability) [3]: did not exhibit any significant killing effects
- Expression Ratio PA0182 ([4]; gene PA0182 (3-ketoacyl-(acyl-carrier-protein) reductase)): 97.1
- Expression Ratio PA0422 ([4]; gene PA0422 (hypothetical protein)): 4.2
- Expression Ratio PA0565 ([4]; gene PA0565 (hypothetical protein)): 12.8
- Expression Ratio PA0741 ([4]; gene PA0741 (hypothetical protein)): 16.5
- Expression Ratio PA1127 ([4]; gene PA1127 (oxidoreductase)): 3.4
- Expression Ratio PA1210 ([4]; gene PA1210 (hypothetical protein)): 21
- Expression Ratio PA1285 ([4]; gene PA1285 (transcriptional regulator)): 4.4
- Expression Ratio PA1334 ([4]; gene PA1334 (oxidoreductase)): 227.6
- Expression Ratio PA1374 ([4]; gene PA1374 (hypothetical protein)): 3.4
- Expression Ratio PA1470 ([4]; gene PA1470 (short chain dehydrogenase)): 4.1
- Expression Ratio PA2196 ([4]; gene PA2196 (transcriptional regulator)): 4.8
- Expression Ratio PA2378 ([4]; gene PA2378 (aldehyde dehydrogenase)): 3.1
- Expression Ratio PA2535 ([4]; gene PA2535 (oxidoreductase)): 9
- Expression Ratio PA2575 ([4]; gene PA2575 (hypothetical protein)): 9.1
- Expression Ratio PA2580 ([4]; gene PA2580 (hypothetical protein)): 8.3
- Expression Ratio PA2610 ([4]; gene PA2610 (hypothetical protein)): 7.2
- Expression Ratio PA2691 ([4]; gene PA2691 (hypothetical protein)): 3.7
- Expression Ratio PA2839 ([4]; gene PA2839 (hypothetical protein)): 11
- Expression Ratio PA2931 ([4]; gene PA2931 (CifR)): 11
- Expression Ratio PA2932_morB ([4]; gene PA2932_morB (morphinone reductase)): 64.9
- Expression Ratio PA3133 ([4]; gene PA3133 (transcriptional regulator)): 3.5
- Expression Ratio PA3223_acpD ([4]; gene PA3223_acpD (AzoR3, azoreductase 3)): 4.8
- Expression Ratio PA3240 ([4]; gene PA3240 (hypothetical protein)): 14.4
- Expression Ratio PA3523 ([4]; gene PA3523 (RND efflux membrane fusion protein precursor)): 9.6
- Expression Ratio PA3920 ([4]; gene PA3920 (metal transporting P-type ATPase)): 3.9
- Expression Ratio PA4167 ([4]; gene PA4167 (2,5-diketo-D-gluconate reductase B)): 510.6
- Expression Ratio PA4173 ([4]; gene PA4173 (hypothetical protein)): 36.7
- Expression Ratio PA4878 ([4]; gene PA4878 (transcriptional regulator)): 4.2

SMILES: CC1=CC(=C(Br)Br)OC1=O [BF9]
- reverting antibiotic tolerance of persisters [2]: revert antibiotic tolerance in a dose dependent manner

SMILES: O=C1OC(=C(Br)Br)C=C1C(Br)Br [BF10]
- reverting antibiotic tolerance of persisters [2]: revert antibiotic tolerance in a dose dependent manner

SMILES: O=C1OC(=C(Br)Br)C=C1CBr [BF11]
- reverting antibiotic tolerance of persisters [2]: revert antibiotic tolerance in a dose dependent manner

SMILES: CC1=C(Br)C(C(Br)Br)OC1=O (centres unmarked) [BF14]
- reverting antibiotic tolerance of persisters [2]: revert antibiotic tolerance in a dose dependent manner
